Data set [1] deals with Cladophora sp. The data set can be described thus: 15-day flask exposure of Cladophora sp. to DDA and Cutrine-Plus. The format is cell-based. The following applies: at concentrations comparable to Cutrine-Plus. The method, then: The experiment was conducted for 15 days and was initiated using 100 mL BG-11 medium contained in 200 mL flasks. […] The experiment was initiated by exposing the algae to 0.1, 0.2, 0.4, 0.8, and 1.6 mg/L as DDA, 0.2, 0.6, 1.0 mg Cu/L Cutrine®-Plus, and combinations of DDA and Cutrine®-Plus. […] The solution was heated in a water bath and diluted to 70 mg/L using warmed deionized water. The concentration of DMSO was approximately 350 mg/L in the test beakers. Cutrine®-Plus stock solution was made at 50 mg/L using deionized water. Three replicates of each exposure concentration, along with three replicates of an untreated reference were tested. Each sample was Maintained at room temperature with 12-hours of light and 12-h dark photoperiod. […] 15 days after exposure. The Bars in FIG. 3 sharing the same letter are not different according to Fishers Protected LSD test at p≤0.05 significance level.

A short description of data set [2]: Solubility remark on stock solution preparation. It counts as physicochemical. As to conditions: stock solution made using 2% DMSO solution, heated.
In data set [3] the test system is Microcystis aeruginosa. The data set can be described thus: 15-day flask exposure of Microcystis aeruginosa to DDA and Cutrine-Plus. The format is cell-based. As to conditions: for Cell Densities of Microcystis aeruginosa 15 days after: initial 4.5×10^4 cells/mL. The method, then:
The experiment was conducted for 15 days and was initiated using 100 mL BG-11 medium contained in 200 mL flasks. […] The experiment was initiated by exposing the algae to 0.1, 0.2, 0.4, 0.8, and 1.6 mg/L as DDA, 0.2, 0.6, 1.0 mg Cu/L Cutrine®-Plus, and combinations of DDA and Cutrine®-Plus. […] The solution was heated in a water bath and diluted to 70 mg/L using warmed deionized water. The concentration of DMSO was approximately 350 mg/L in the test beakers. Cutrine®-Plus stock solution was made at 50 mg/L using deionized water. Three replicates of each exposure concentration, along with three replicates of an untreated reference were tested. Each sample was Maintained at room temperature with 12-hours of light and 12-hours dark photo period.

For data set [4], the system named is M. aeruginosa UTEX 2385. The data set can be described thus: MIC 96-well microtiter plate assay in BG-11, 10 days. The format is cell-based, Microcystis aeruginosa. The following applies: for In vivo chlorophyll a of M. aeruginosa: 10 days, initial 0.1 ug/L. The method, then:
MICs for the samples against M. aeruginosa were determined in a standard 96-well microtiter plate assay in BG-11 with a starting inoculum of ˜1×10^5 cells/mL. Algae plates were incubated for 10 days. MIC concentrations were determined visually, in vivo chlorophyll a was determined fluorometrically, and cell density was determined via direct counting. Samples were tested in duplicate.

For `CCCCCCCCCCCCN` [dodecylamine], the “effectiveness as an algaecide on Cladophora sp.” value in data set [1] is reported as “effective”. Also, in data set [2], the solubility result is “low solubility”. For the same molecule, the “log reduction in M. aeruginosa cells” value in data set [3] (0.4 mg/L, 15 days after start, compared to untreated reference) was found to be 1 log. Further, in data set [3] (0.2 to 1.6 ppm (mg/L), 15 days after start, p<0.01), the “Chlorophyll a content of M. aeruginosa compared to untreated reference algae” value is listed as “reduced”. Besides, the “Cell Densities of Microcystis aeruginosa 15 days after” value is given as 5.2 × 10^6 cells/mL in data set [3] (DDA 0.1 mg/L, 15 days); 6.7 × 10^6 cells/mL in data set [3] (DDA 0.2 mg/L, 15 days); 8.0 × 10^5 cells/mL in data set [3] (DDA 0.4 mg/L, 15 days); below 10000 cells/mL in data set [3] (DDA 0.8 mg/L, 15 days); below 10000 cells/mL in data set [3] (DDA 1.6 mg/L, 15 days). For the same molecule, the “concentration necessary to achieve similar results as Cutrine-Plus (cell count data)” value in data set [3] (M. aeruginosa control, 15 days) is 0.8 mg/L. Besides, in data set [3] (at concentrations comparable to Cutrine-Plus), the “effectiveness as an algaecide on Microcystis aeruginosa” value was “effective”. Further, the “In vivo chlorophyll a of M. aeruginosa” value is 7.85 µg/L in data set [4] (0.031 active ppm); 5.75 µg/L in data set [4] (0.063 active ppm); 2.60 µg/L in data set [4] (0.125 active ppm); 0.35 µg/L in data set [4] (0.25 active ppm); 0.00 µg/L in data set [4] (0.5 active ppm).
As usually defined, the MIC is the lowest concentration found to suppress growth. Turning to `CCCCCCCCCCCCN.Cl` [1-dodecylammonium chloride], the “In vivo chlorophyll a of M. aeruginosa” value came out at 7.20 µg/L in data set [4] (0.031 active ppm); 4.65 µg/L in data set [4] (0.063 active ppm); 2.05 µg/L in data set [4] (0.125 active ppm); 0.15 µg/L in data set [4] (0.25 active ppm); 0.00 µg/L in data set [4] (0.5 active ppm). In data set [4] (Microcystis aeruginosa, UTEX2385, 240 h, determined visually, 10 days incubation, read-out: MIC values per individual sample, M. aeruginosa), the minimum inhibitory concentration (MIC) was 0.25 µg/mL.
